Results from patent publication US11918582B2 (RAPT Therapeutics, Inc., priority 2021, dated 2024).
Where a name gives a salt, the structure may show the parent alone.

molecular target: T1, human HPK1 (MAP4K1) (Homo sapiens, UniProt Q92918); test: Biochemical assay for activity against HPK1 (ADP-Glo, MBP substrate); details: recombinant human HPK1 kinase domain, 1 nM enzyme, ADP-Glo luminescence
T1 construct: Recombinant human HPK1 kinase domain was obtained from ThermoFisher (Cat. #PV6357) and SignalChem (Cat. #M23-11G); purchased ThermoFisher; SignalChem PV6357; M23-11G
T1 sequence (Q92918 17-274 limits assumed): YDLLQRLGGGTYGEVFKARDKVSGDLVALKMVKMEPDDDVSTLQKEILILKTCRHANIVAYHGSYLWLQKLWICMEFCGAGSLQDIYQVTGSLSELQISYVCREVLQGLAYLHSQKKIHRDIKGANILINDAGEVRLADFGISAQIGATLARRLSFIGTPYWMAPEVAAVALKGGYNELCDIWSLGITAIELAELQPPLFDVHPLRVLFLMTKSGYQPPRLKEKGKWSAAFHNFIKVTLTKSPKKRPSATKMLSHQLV
Summary of the method: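 Recombinant human HPK1 kinase domain (1 nM solution) preincubated 15 min at room temperature with compounds in pH 7.5 HEPES buffer with NaCl, TCEP, MgCl2, Tween-20, BSA. MBP substrate with ATP added, reaction run 2 h at room temperature. ADP formation read by ADP-Glo luminescence to give IC50.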

Compound | IC50 [nM]
COc1cc2c(cc1Nc1ncc3cnn([C@H]4CCC[C@H](C(=O)O)C4)c3n1)CN(C)CC2 (racemic) [Example 28, rac-(1S,3S)-3-(6-((6-methoxy-2-methyl-1,2,3,4-tetrahydroisoquinolin-7-yl)amino)-1H-pyrazolo[3,4-d]pyrimidin-1-yl)cyclohexane-1-carboxylic acid] | < 100
COc1cc2c(cc1Nc1ncc3cnn([C@H]4CCC[C@H](CO)C4)c3n1)CN(C)CC2 [Example 63, ((1S,3S)-3-(6-((6-methoxy-2-methyl-1,2,3,4-tetrahydroisoquinolin-7-yl)amino)-1H-pyrazolo[3,4-d]pyrimidin-1-yl)cyclohexyl)methanol hydrochloride] | < 100
CC(=O)N1CCC[C@H]1Cn1ncc2cnc(Nc3cc4c(c(C(F)(F)F)c3)CCN(C)C4)nc21 [Example 62, (S)-1-(2-((6-((2-methyl-5-(trifluoromethyl)-1,2,3,4-tetrahydroisoquinolin-7-yl)amino)-1H-pyrazolo[3,4-d]pyrimidin-1-yl)methyl)182thenone182ne-1-yl)ethan-1-one] | < 100
COc1cc2c(cc1Nc1ncc3cnn([C@@H]4CC[C@H](CO)C4)c3n1)CN(C)CC2 (relative stereo) [Example 24] | < 100
COc1cc2c(cc1Nc1ncc3cnn([C@H]4CC[C@@H](CO)CC4)c3n1)CN(C)CC2 [Example 67, cis-[4-[6-[(6-methoxy-2-methyl-3,4-dihydro-1H-isoquinolin-7-yl)amino]pyrazolo[3,4-d]pyrimidin-1-yl]cyclohexyl]methanol] | < 100
CN1CCc2ccc(Nc3ncc4cnn(C)c4n3)cc2C1 [Example 5, 2-methyl-N-(1-methylpyrazolo[3,4-d]pyrimidin-6-yl)-3,4-dihydro-1H-isoquinolin-7-amine] | < 100
COc1cc2c(cc1Nc1ncc3cnn([C@H]4CC[C@H](C(=O)O)C4)c3n1)CN(C)CC2 (racemic) [Example 41, rac-(1S,3S)-3-(6-((6-methoxy-2-methyl-1,2,3,4-tetrahydroisoquinolin-7-yl)amino)-1H-pyrazolo[3,4-d]pyrimidin-1-yl)cyclopentane-1-carboxylic acid] | 100 to 250
CN1CCc2c(cc(Nc3ncc4cnn([C@H]5CC[C@H](CO)CC5)c4n3)cc2C(F)(F)F)C1 [Example 57, ((1r,4r)-4-(6-((2-methyl-5-(trifluoromethyl)-1,2,3,4-tetrahydroisoquinolin-7-yl)amino)-1H-pyrazolo[3,4-d]pyrimidin-1-yl)cyclohexyl)methanol] | < 100
CN1CCc2ccc(Nc3ncc4cnn(C5CCCOC5)c4n3)cc2C1 (stereo not drawn) [Example 15, 2-methyl-N-(1-(tetrahydro-2H-pyran-3-yl)-1H-pyrazolo[3,4-d]pyrimidin-6-yl)-1,2,3,4-tetrahydroisoquinolin-7-amine] | < 100

Results, then the molecule that gave them:

IC50 [nM] | Compound
< 100 | COc1cc2c(cc1Nc1ncc3cnn(C[C@@H]4C[C@@H](C)CN4C(C)=O)c3n1)CN(C)CC2 [Example 138, 1-((2S,4R)-2-((6-((6-methoxy-2-methyl-1,2,3,4-tetrahydroisoquinolin-7-yl)amino)-1H-pyrazolo[3,4-d]pyrimidin-1-yl)methyl)-4-methylpyrrolidin-1-yl)ethan-1-one]
< 100 | COc1cc2c(cc1Nc1ncc3cnn([C@H]4CC[C@H](O)CC4)c3n1)CN(CCF)CC2 [Example 153, trans-4-(6-((2-(2-fluoroethyl)-6-methoxy-1,2,3,4-tetrahydroisoquinolin-7-yl)amino)-1H-pyrazolo[3,4-d]pyrimidin-1-yl)cyclohexan-1-ol]
< 100 | COc1cc2c(cc1Nc1ncc3cnn(C[C@@H]4C[C@@H]4C(=O)O)c3n1)CN(C)CC2 (racemic) [Example 188, (cis)-2-((6-((6-methoxy-2-methyl-1,2,3,4-tetrahydroisoquinolin-7-yl)amino)-1H-pyrazolo[3,4-d]pyrimidin-1-yl)methyl)cyclopropane-1-carboxylic Acid]
< 100 | COc1cc2c(cc1Nc1ncc3cnn(C[C@@H]4CCCN4S(N)(=O)=O)c3n1)CN(C)CC2 [Example 190, (S)-2-((6-((6-methoxy-2-methyl-1,2,3,4-tetrahydroisoquinolin-7-yl)amino)-1H-pyrazolo[3,4-d]pyrimidin-1-yl)methyl)pyrrolidine-1-sulfonamide hydrochloride]
100 to 250 | COc1cc2c(cc1Nc1ncc3cnn([C@H]4C[C@@H](CNS(C)(=O)=O)C4)c3n1)CN(C)CC2 [Example 125, N-((cis-3-(6-((6-methoxy-2-methyl-1,2,3,4-tetrahydroisoquinolin-7-yl)amino)-1H-pyrazolo[3,4-d]pyrimidin-1-yl)cyclobutyl)methyl)methanesulfonamide]
< 100 | COc1cc2c(cc1Nc1ncc3cnn(C[C@@H]4CC[C@@H](O)CN4C(C)=O)c3n1)CN(C)CC2 [Example 225, 1-((2S,5R)-5-hydroxy-2-((6-((6-methoxy-2-methyl-1,2,3,4-tetrahydroisoquinolin-7-yl)amino)-1H-pyrazolo[3,4-d]pyrimidin-1-yl)methyl)piperidin-1-yl)ethan-1-one]
< 100 | COc1cc2c(cc1Nc1ncc3cnn(CC4CC4(F)F)c3n1)CN(C)CC2 (stereo not drawn) [Example 206, N-(1-((2,2-difluorocyclopropyl)methyl)-1H-pyrazolo[3,4-d]pyrimidin-6-yl)-6-methoxy-2-methyl-1,2,3,4-tetrahydroisoquinolin-7-amine]
< 100 | CN1CCc2ccc(Nc3ncc4cnn(C56CC7CC(CC(C7)C5)C6)c4n3)cc2C1 [Example 103, N-(1-((3s,5s,7s)-adamantan-1-yl)-1H-pyrazolo[3,4-d]pyrimidin-6-yl)-2-methyl-1,2,3,4-tetrahydroisoquinolin-7-amine]
< 100 | COC(=O)N[C@@H](C)Cn1ncc2cnc(Nc3cc4c(cc3OC)CCN(C)C4)nc21 [Example 95, methyl N-[(1S)-2-[6-[(6-methoxy-2-methyl-3,4-dihydro-1H-isoquinolin-7-yl)amino]pyrazolo[3,4-d]pyrimidin-1-yl]-1-methyl-ethyl]carbamate]
< 100 | COc1cc2c(cc1Nc1ncc3cnn(CC4CCCNC4=O)c3n1)CN(C)CC2 (stereo not drawn) [Example 218, 3-[[6-[(6-methoxy-2-methyl-3,4-dihydro-1H-isoquinolin-7-yl)amino]pyrazolo[3,4-d]pyrimidin-1-yl]methyl]piperidin-2-one]
< 100 | COc1cc2c(cc1Nc1ncc3cnn(C[C@@H]4[C@H](C)CCN4C(C)=O)c3n1)CN(C)CC2 [Example 189, 1-((2S,3R)-2-((6-((6-methoxy-2-methyl-1,2,3,4-tetrahydroisoquinolin-7-yl)amino)-1H-pyrazolo[3,4-d]pyrimidin-1-yl)methyl)-3-methylpyrrolidin-1-yl)ethan-1-one]
< 100 | COc1cc2c(cc1Nc1ncc3cnn(CC4CCCOC4)c3n1)CN(C)CC2 (racemic) [Example 200, (S)-6-methoxy-2-methyl-N-(1-((tetrahydro-2H-pyran-3-yl)methyl)-1H-pyrazolo[3,4-d]pyrimidin-6-yl)-1,2,3,4-tetrahydroisoquinolin-7-amine and (R)-6-methoxy-2-methyl-N-(1-((tetrahydro-2H-pyran-3-yl)methyl)-1H-pyrazolo[3,4-d]pyrimidin-6-yl)-1,2,3,4-tetrahydroisoquinolin-7-amine racemic mixture]
